Measured values published in PubChem BioAssay (NCI).
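Where inhibition never reached the appropriate level, the endpoint shown equals the highest concentration tested. Otherwise, values were interpolated linearly from a five-concentration, 48-hour dose response in 96-well plates. TGI: concentration producing complete growth inhibition.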

Assays:
Assay in all cases: inhibition of tumour cell growth, NCI panel, 48 h
786-0 renal = system: 786-0 renal
A498 renal = system: A498 renal
A549 NSCLC = system: A549 NSCLC
ACHN renal = system: ACHN renal
BT-549 breast = system: BT-549 breast
CAKI-1 renal = system: CAKI-1 renal
CCRF-CEM leukemia = system: CCRF-CEM leukemia
COLO 205 colon = system: COLO 205 colon
DU-145 prostate = system: DU-145 prostate
EKVX NSCLC = system: EKVX NSCLC
HCC-2998 colon = system: HCC-2998 colon
HCT-116 colon = system: HCT-116 colon
HCT-15 colon = system: HCT-15 colon
HL-60(TB) leukemia = system: HL-60(TB) leukemia
HOP-62 NSCLC = system: HOP-62 NSCLC
HOP-92 NSCLC = system: HOP-92 NSCLC
HS 578T breast = system: HS 578T breast
HT29 colon = system: HT29 colon
IGROV1 ovarian = system: IGROV1 ovarian
K-562 leukemia = system: K-562 leukemia
KM12 colon = system: KM12 colon
LOX IMVI melanoma = system: LOX IMVI melanoma
M14 melanoma = system: M14 melanoma
MALME-3M melanoma = system: MALME-3M melanoma
MCF7 breast = system: MCF7 breast
MDA-MB-231 breast = system: MDA-MB-231 breast
MDA-MB-435 = system: MDA-MB-435
MDA-N = system: MDA-N
NCI-H226 lung = system: NCI-H226 lung
NCI-H23 lung = system: NCI-H23 lung
NCI-H460 lung = system: NCI-H460 lung
NCI-H522 lung = system: NCI-H522 lung
NCI/ADR-RES ovarian = system: NCI/ADR-RES ovarian
OVCAR-3 ovarian = system: OVCAR-3 ovarian
OVCAR-4 ovarian = system: OVCAR-4 ovarian
OVCAR-5 ovarian = system: OVCAR-5 ovarian
OVCAR-8 ovarian = system: OVCAR-8 ovarian
PC-3 prostate = system: PC-3 prostate
RPMI-8226 leukemia = system: RPMI-8226 leukemia
RXF 393 renal = system: RXF 393 renal
SF-268 CNS = system: SF-268 CNS
SF-295 CNS = system: SF-295 CNS
SF-539 CNS = system: SF-539 CNS
SK-MEL-2 melanoma = system: SK-MEL-2 melanoma
SK-MEL-28 melanoma = system: SK-MEL-28 melanoma
SK-MEL-5 melanoma = system: SK-MEL-5 melanoma
SK-OV-3 ovarian = system: SK-OV-3 ovarian
SN12C renal = system: SN12C renal
SNB-19 CNS = system: SNB-19 CNS
SNB-75 CNS = system: SNB-75 CNS
SR leukemia = system: SR leukemia
SW-620 colon = system: SW-620 colon
T-47D breast = system: T-47D breast
TK-10 renal = system: TK-10 renal
U251 CNS = system: U251 CNS
UACC-257 melanoma = system: UACC-257 melanoma
UACC-62 melanoma = system: UACC-62 melanoma
UO-31 renal = system: UO-31 renal
MOLT-4 leukemia = system: MOLT-4 leukemia

O=c1c2ccccc2nc(-c2ccccc2)n1O
TGI (786-0 renal): > 100 µM | TGI (A498 renal): > 100 µM | TGI (A549 NSCLC): > 100 µM | TGI (ACHN renal): > 100 µM | TGI (BT-549 breast): > 100 µM | TGI (CAKI-1 renal): > 100 µM | TGI (CCRF-CEM leukemia): > 100 µM | TGI (COLO 205 colon): > 100 µM | TGI (DU-145 prostate): > 100 µM | TGI (EKVX NSCLC): > 100 µM | TGI (HCC-2998 colon): > 100 µM | TGI (HCT-116 colon): > 100 µM | TGI (HCT-15 colon): > 100 µM | TGI (HL-60(TB) leukemia): > 100 µM | TGI (HOP-62 NSCLC): 37.4 µM | TGI (HOP-92 NSCLC): > 100 µM | TGI (HS 578T breast): > 100 µM | TGI (HT29 colon): > 100 µM | TGI (IGROV1 ovarian): > 100 µM | TGI (K-562 leukemia): > 100 µM | TGI (KM12 colon): > 100 µM | TGI (LOX IMVI melanoma): > 100 µM | TGI (M14 melanoma): > 100 µM | TGI (MALME-3M melanoma): > 100 µM | TGI (MCF7 breast): > 100 µM | TGI (MDA-MB-231 breast): > 100 µM | TGI (MDA-MB-435): > 100 µM | TGI (MDA-N): > 100 µM | TGI (NCI-H226 lung): > 100 µM | TGI (NCI-H23 lung): > 100 µM | TGI (NCI-H460 lung): > 100 µM | TGI (NCI-H522 lung): > 100 µM | TGI (NCI/ADR-RES ovarian): > 100 µM | TGI (OVCAR-3 ovarian): > 100 µM | TGI (OVCAR-4 ovarian): > 100 µM | TGI (OVCAR-5 ovarian): > 100 µM | TGI (OVCAR-8 ovarian): > 100 µM | TGI (PC-3 prostate): > 100 µM | TGI (RPMI-8226 leukemia): > 100 µM | TGI (RXF 393 renal): > 100 µM | TGI (SF-268 CNS): > 100 µM | TGI (SF-295 CNS): > 100 µM | TGI (SF-539 CNS): > 100 µM | TGI (SK-MEL-2 melanoma): > 100 µM | TGI (SK-MEL-28 melanoma): > 100 µM | TGI (SK-MEL-5 melanoma): > 100 µM | TGI (SK-OV-3 ovarian): > 100 µM | TGI (SN12C renal): > 100 µM | TGI (SNB-19 CNS): > 100 µM | TGI (SNB-75 CNS): > 100 µM | TGI (SR leukemia): > 100 µM | TGI (SW-620 colon): > 100 µM | TGI (T-47D breast): > 100 µM | TGI (TK-10 renal): > 100 µM | TGI (U251 CNS): > 100 µM | TGI (UACC-257 melanoma): > 100 µM | TGI (UACC-62 melanoma): > 100 µM | TGI (UO-31 renal): > 100 µM

CN(C)CCc1ccnc2nc(-c3ccc4ccccc4c3)cn12
TGI (786-0 renal): 63.2 µM | TGI (A549 NSCLC): > 100 µM | TGI (ACHN renal): > 100 µM | TGI (BT-549 breast): 69 µM | TGI (CAKI-1 renal): > 100 µM | TGI (CCRF-CEM leukemia): > 100 µM | TGI (COLO 205 colon): > 100 µM | TGI (DU-145 prostate): > 100 µM | TGI (EKVX NSCLC): > 100 µM | TGI (HCC-2998 colon): 37.2 µM | TGI (HCT-116 colon): > 100 µM | TGI (HCT-15 colon): > 100 µM | TGI (HL-60(TB) leukemia): > 100 µM | TGI (HOP-62 NSCLC): > 100 µM | TGI (HS 578T breast): 52.8 µM | TGI (HT29 colon): 38.9 µM | TGI (IGROV1 ovarian): 81.8 µM | TGI (K-562 leukemia): > 100 µM | TGI (KM12 colon): 44.3 µM | TGI (LOX IMVI melanoma): 65 µM | TGI (M14 melanoma): > 100 µM | TGI (MALME-3M melanoma): > 100 µM | TGI (MCF7 breast): > 100 µM | TGI (MDA-MB-231 breast): > 100 µM | TGI (MDA-MB-435): > 100 µM | TGI (MDA-N): > 100 µM | TGI (MOLT-4 leukemia): > 100 µM | TGI (NCI-H226 lung): > 100 µM | TGI (NCI-H23 lung): 46.2 µM | TGI (NCI-H460 lung): 34.1 µM | TGI (NCI-H522 lung): 24.8 µM | TGI (NCI/ADR-RES ovarian): 85.3 µM | TGI (OVCAR-3 ovarian): 72 µM | TGI (OVCAR-4 ovarian): > 100 µM | TGI (OVCAR-5 ovarian): > 100 µM | TGI (OVCAR-8 ovarian): 92.7 µM | TGI (PC-3 prostate): > 100 µM | TGI (RPMI-8226 leukemia): > 100 µM | TGI (RXF 393 renal): > 100 µM | TGI (SF-268 CNS): 77.5 µM | TGI (SF-295 CNS): > 100 µM | TGI (SK-MEL-2 melanoma): > 100 µM | TGI (SK-MEL-28 melanoma): > 100 µM | TGI (SK-MEL-5 melanoma): > 100 µM | TGI (SK-OV-3 ovarian): > 100 µM | TGI (SN12C renal): 75.9 µM | TGI (SNB-19 CNS): > 100 µM | TGI (SR leukemia): > 100 µM | TGI (SW-620 colon): 47.7 µM | TGI (T-47D breast): > 100 µM | TGI (TK-10 renal): 40.7 µM | TGI (U251 CNS): > 100 µM | TGI (UACC-257 melanoma): > 100 µM | TGI (UACC-62 melanoma): > 100 µM | TGI (UO-31 renal): > 100 µM
